Laboratory results as given in patent EP2853532B1, “1,2,4-oxadiazole derivatives as allosteric modulators of metabotropic glutamate receptors belonging to group III” (Instytut Farmakologii Polskiej Akademii Nauk, priority 2013, dated 2015).

Biological target: mGluR1 (Homo sapiens, UniProt Q13255)
Assay: not given
Details: cited from earlier work

Sequence of mGluR1 (Q13255 19-1194): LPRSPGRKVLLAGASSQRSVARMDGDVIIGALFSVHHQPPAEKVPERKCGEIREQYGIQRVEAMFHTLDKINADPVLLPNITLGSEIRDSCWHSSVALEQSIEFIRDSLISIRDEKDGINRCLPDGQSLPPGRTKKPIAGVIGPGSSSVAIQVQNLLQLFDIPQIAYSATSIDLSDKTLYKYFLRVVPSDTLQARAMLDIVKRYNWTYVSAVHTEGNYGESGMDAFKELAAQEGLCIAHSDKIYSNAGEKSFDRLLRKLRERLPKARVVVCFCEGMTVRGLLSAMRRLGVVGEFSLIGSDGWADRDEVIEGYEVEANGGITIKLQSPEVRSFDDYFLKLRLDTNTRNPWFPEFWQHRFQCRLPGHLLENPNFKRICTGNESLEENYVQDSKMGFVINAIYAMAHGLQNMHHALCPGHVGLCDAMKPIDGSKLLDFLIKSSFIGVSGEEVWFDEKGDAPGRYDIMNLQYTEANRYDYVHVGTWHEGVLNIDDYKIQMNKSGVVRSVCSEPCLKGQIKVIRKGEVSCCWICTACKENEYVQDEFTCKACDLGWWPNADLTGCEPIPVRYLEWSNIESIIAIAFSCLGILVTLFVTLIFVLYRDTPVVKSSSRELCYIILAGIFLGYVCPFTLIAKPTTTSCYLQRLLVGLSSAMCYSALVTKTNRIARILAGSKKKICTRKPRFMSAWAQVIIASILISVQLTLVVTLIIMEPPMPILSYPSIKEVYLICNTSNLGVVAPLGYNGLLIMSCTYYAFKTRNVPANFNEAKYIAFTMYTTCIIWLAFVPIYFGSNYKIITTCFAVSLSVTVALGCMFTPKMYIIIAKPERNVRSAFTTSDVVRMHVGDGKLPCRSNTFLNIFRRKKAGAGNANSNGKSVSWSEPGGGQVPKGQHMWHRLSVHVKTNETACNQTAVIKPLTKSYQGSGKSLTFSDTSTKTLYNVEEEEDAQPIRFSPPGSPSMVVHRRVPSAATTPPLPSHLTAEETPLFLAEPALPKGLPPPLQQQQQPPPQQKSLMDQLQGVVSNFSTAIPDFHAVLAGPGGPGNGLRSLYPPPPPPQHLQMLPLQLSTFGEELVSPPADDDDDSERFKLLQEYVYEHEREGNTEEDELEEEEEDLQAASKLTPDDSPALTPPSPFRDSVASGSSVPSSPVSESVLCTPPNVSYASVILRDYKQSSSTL

SMILES	partial antagonist of mGluR1 [%]
O=C(Nc1ccccc1)C12CC1C(=NO)c1ccccc1O2 (single isomer, unassigned; (-)) [(-)PHCCC, N-phenyl-7-(hydroxyimino)cyclopropan[b]chromen-1a-carboxamide]	30

Biological target: mGluR8 (Homo sapiens, UniProt O00222)
Sequence (O00222 34-908, species assumed): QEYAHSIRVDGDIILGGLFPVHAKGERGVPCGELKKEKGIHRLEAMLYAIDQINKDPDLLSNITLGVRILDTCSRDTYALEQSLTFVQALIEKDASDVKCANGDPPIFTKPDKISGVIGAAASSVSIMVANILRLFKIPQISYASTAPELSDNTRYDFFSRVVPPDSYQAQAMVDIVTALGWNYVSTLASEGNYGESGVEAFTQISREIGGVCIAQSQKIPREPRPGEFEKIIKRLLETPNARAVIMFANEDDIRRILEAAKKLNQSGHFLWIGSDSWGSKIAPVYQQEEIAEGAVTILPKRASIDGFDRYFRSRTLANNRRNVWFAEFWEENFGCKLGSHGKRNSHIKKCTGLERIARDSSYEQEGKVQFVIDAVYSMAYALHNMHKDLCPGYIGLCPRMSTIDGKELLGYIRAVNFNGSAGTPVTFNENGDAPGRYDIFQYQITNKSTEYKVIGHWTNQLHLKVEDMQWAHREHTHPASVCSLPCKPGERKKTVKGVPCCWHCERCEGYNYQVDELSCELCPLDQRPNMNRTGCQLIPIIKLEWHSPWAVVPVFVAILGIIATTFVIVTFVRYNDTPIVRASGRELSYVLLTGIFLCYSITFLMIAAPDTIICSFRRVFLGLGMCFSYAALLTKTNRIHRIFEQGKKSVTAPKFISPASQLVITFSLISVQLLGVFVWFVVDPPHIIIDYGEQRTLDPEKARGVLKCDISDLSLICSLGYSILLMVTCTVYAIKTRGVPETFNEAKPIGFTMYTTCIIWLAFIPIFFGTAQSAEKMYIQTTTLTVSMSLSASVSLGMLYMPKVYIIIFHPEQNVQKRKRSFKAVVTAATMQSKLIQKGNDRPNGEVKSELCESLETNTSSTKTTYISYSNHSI
Assay: not given
Details: cited from earlier work

SMILES	selectivity for mGluR8 over mGluR4 [fold]
N[C@H](C(=O)O)c1ccc(C(=O)O)c(C(=O)O)c1 [(S)-3,4-DCPG]	100

Biological target: T1, recombinant human mGlu4a receptor (Homo sapiens, UniProt Q14833)
T1 construct: expressed in transfected cells
T1 sequence (Q14833 33-912): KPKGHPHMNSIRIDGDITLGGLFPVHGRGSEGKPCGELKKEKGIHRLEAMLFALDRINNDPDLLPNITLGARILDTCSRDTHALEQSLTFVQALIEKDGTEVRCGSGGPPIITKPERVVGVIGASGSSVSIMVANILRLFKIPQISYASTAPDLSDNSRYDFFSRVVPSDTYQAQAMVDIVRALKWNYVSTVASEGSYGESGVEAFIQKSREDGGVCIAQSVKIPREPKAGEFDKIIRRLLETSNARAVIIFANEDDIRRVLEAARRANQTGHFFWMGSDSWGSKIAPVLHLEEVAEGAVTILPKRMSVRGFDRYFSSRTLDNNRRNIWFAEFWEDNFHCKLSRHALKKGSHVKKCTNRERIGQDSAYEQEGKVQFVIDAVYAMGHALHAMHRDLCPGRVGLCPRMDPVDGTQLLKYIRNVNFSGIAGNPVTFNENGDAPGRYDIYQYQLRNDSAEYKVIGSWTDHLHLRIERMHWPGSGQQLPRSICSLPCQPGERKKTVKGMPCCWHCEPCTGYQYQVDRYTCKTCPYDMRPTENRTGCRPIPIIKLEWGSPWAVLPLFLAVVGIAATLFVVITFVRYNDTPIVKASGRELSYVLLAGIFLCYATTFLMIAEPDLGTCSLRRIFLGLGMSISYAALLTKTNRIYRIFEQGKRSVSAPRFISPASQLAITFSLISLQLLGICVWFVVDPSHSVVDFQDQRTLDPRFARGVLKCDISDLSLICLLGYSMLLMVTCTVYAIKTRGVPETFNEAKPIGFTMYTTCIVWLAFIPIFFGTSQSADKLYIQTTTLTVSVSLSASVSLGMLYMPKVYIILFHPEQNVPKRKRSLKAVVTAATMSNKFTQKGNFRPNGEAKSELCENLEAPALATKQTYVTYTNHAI
Assay: mGluR4 assay on T-Rex-293 cell line; cyclic AMP level by HTRF in the presence of forskolin and glutamate
Format: cell-based
Details: EC50 for potentiation of glutamate response; forskolin 10 uM; mean of at least three independent experiments in duplicates
Excerpt: mGluR4 assay on T-Rex™-293 Cell line - expressing recombinant human mGlu4 receptor.
The compounds of the present invention are positive allosteric modulator of III group of metabotropic glutamate receptors, subtype 4. Their activity was examined on recombinant human mGlu4a receptor by detecting level of cyclic AMP in the presence of forskolin, adenylyl cyclase activator. The positive allosteric modulators provided in the present invention are expected to increase the functional activity and/or maximal efficacy of glutamate or other orthosteric agonists at mGluR4 receptor.
Plazmid construct. The cDNA fragment encoding human metabotropic receptor 4, variant 1 (accession number: NM_000841, NCBI Nucleotide Database) was cloned into the BamHI/NotI sites of pcDNA5/FRT/TO vector, under the control of a tetracycline regulated promoter (Invitrogen, Poland).
Cell culture and transfection. HEK293 cell line containing an inducible expression system (Flp-In T-Rex 293 cell line, Invitrogen, Poland) was maintained in Dulbecco's modified Eagle's medium supplemented with 10% fetal bovine serum, 2mM L-Glutamine (supplemented DMEM, LONZA, Poland), blastycidin and zeocin. T-Rex 293 cells were transfected with mixture of pTet-hmGluR4 and pOG44 (Invitrogen, Poland) plazmids and GeneJuice transfection reagent (Merck Millipore, Poland) according to the manufacturer's instructions. Cells were grown in supplemented DMEM with hygromycin B (75µg/ml) allowed selection of cells with stably integrated one copy of pTet-hmGluR4 plazmid. Expression of mGluR4 is induced by Tetracycline treatment.
Cell preparation before assay. Stable transfected cells were grown to 60% confluency with supplemented DMEM. Two days before experiment mGluR4 expression was induced by adding tetracycline in concentration 0,75µg/ml. 40h before experiment cells were incubated in a L-Glutamine free medium.
Cyclic AMP measurement. cAMP was measured quantitatively by cAMP dynamic 2 (Cisbio Biossays, France) according to manufacture instructions. cAMP dynamic 2 assay (Cisbio Biossays, France) is method based on homogenous time-resolved fluorescence. cAMP dynamic 2 is a competitive immunoassay between native cAMP produced by cells and the cyclic AMP labeled with, a fluorescence dye. The tracer binding is visualized by antibody anti - cAMP labeled with Eu^3+ cryptate. The specific signal is inversely proportional to the concentration of cAMP in the sample.
Incubation of cells with all compounds was performed in 96 well plates. Each well were supplement with HHB containing 130 mM NaCl, 5,4 mM KCl, 1,8 mM CaCl2, 0,8 mM MgSO4, 0,9 mM NaH2PO4, 25 mM glucose and 20 mM HEPES, pH 7.4 with or without glutamate and with or without tested compound and forskolin (10 uM final concentration) in total volume of 50 ul. Assay was started by adding 50 ul of HHB buffer with cells to each well. Assay was performed in 37° C. After 5 min of incubation 10 ul of suspension containing 2000 cells were transferred to white 384 well plates (784080, Greiner bio-one) containing of 5 ul of cAMP-d2 conjugate in lysis buffer (cAMP dynamic 2, Cisbio Bioassays, France) in each well. Than was added 5 ul of cryptate conjugate in lysis buffer (cAMP dynamic 2, Cisbio Bioassays, France). After 1 h incubation in room temperature the fluorescence intensity of the assay plate were measured at 314 nm excitation, and 620 nm and 665 nm emission in Infinite M1000 (Tecan) microplate reader. Data were expressed as the ratio of 665 nm/620 nm. All liquid handling operations were performed using EVO 2000 system (Tecan, Switzerland).
Potentiation of the glutamate response of mGluR4 receptor by the invented compounds was observed as a decrease of EC50 value for the glutamate in the presence of these molecules in the compare of EC50 value in the absence of compounds. A decrease in the EC50 for glutamate in the presence of tested compound was an indicator of degree of mGluR4 positive allosteric modulation at a given concentration of the sample compound. […]

SMILES	EC50 [nM]
COc1ccc(C(=O)Nc2ccc(-c3nc(-c4ccccc4)no3)cc2)cc1 [Example 49, 4-methoxy-N-[4-(3-phenyl-1,2,4-oxadiazol-5-yl)phenyl]benzamide]	< 300
O=C(Nc1ccc(-c2noc(-c3ccccc3)n2)c(C(F)(F)F)c1)c1ccccn1 [Example 28]	< 300
Cc1cc(NC(=O)c2ccccn2)ccc1-c1noc(-c2ccccc2)n1 [Example 30, N-[3-methyl-4-(5-phenyl-1,2,4-oxadiazol-3-yl)phenyl]pyridine-2-carboxamide]	< 300
COc1ccccc1-c1nc(-c2ccc(NC(=O)c3ccccn3)cc2F)no1 [Example 27, N-{4-[5-(2-methoxyphenyl)-1,2,4-oxadiazol-3-yl]-3-fluorophenyl}pyridine-2-carboxamide]	< 300

Same assay, conditions: T-REx-293; percent of mGluR4 activity with tested compound and glutamate at maximally activating concentration (100%); mean of at least three independent experiments; read-out: % Glu Max

SMILES	Emax [%]
COc1cc(NC(=O)c2ccccn2)ccc1-c1noc(-c2ccc(F)cc2Cl)n1 [Example 19, N-{4-[5-(2-chloro-4-fluorophenyl)-1,2,4-oxadiazol-3-yl]-3-methoxyphenyl} pyridine-2-carboxamide]	99.2 to 119
COc1ccc(C(=O)Nc2ccc(-c3nc(-c4ccccc4)no3)cc2)cc1 [Example 49, 4-methoxy-N-[4-(3-phenyl-1,2,4-oxadiazol-5-yl)phenyl]benzamide]	105 to 118
O=C(Nc1ccc(-c2noc(-c3ccccc3)n2)c(C(F)(F)F)c1)c1ccccn1 [Example 28]	105 to 118
COc1cc(NC(=O)c2cccc(Cl)n2)ccc1-c1noc(-c2ccccc2Cl)n1 [Example 34, 6-chloro-N-{4-[5-(2-chlorophenyl)-1,2,4-oxadiazol-3-yl]-3-methoxyphenyl}pyridine-2-carboxamide]	99.2 to 119
O=C(Nc1ccc(-c2nc(-c3ccccc3)no2)cc1)c1cccc(Cl)c1 [Example 48, 3-chloro-N-[4-(3-phenyl-1,2,4-oxadiazol-5-yl)phenyl]benzamide]	99.2 to 119
O=C(Nc1ccc(-c2nc(-c3ccccc3)no2)cc1)c1ccc([N+](=O)[O-])cc1 [Example 50, 4-nitro-N-[4-(3-phenyl-1,2,4-oxadiazol-5-yl)phenyl]benzamide]	105 to 135
COc1cc(NC(=O)c2ccccn2)ccc1-c1noc(-c2ccccc2Cl)n1 [Example 17, N-{4-[5-(2-chlorophenyl)-1,2,4-oxadiazol-3-yl]-3-methoxyphenyl}pyridine-2-carboxamide]	99.2 to 119
Cc1cc(NC(=O)c2ccccn2)ccc1-c1noc(-c2ccccc2)n1 [Example 30, N-[3-methyl-4-(5-phenyl-1,2,4-oxadiazol-3-yl)phenyl]pyridine-2-carboxamide]	105 to 118
O=S(=O)(Nc1ccc(F)cc1F)c1ccc(-c2noc(-c3ccccn3)n2)cc1 [Example 46, N-(2,4-difluorophenyl)-4-[5-(pyridin-2-yl)-1,2,4-oxadiazol-3-yl]benzene-1-sulfonamide]	99.2 to 119
O=C(Nc1ccc(-c2nc(-c3ccccc3)no2)cc1)c1ccccc1 [Example 47, N-[4-(3-phenyl-1,2,4-oxadiazol-5-yl)phenyl]benzamide]	99.2 to 119
O=C(Nc1ccc(-c2noc(-c3ccccc3Cl)n2)c(C(F)(F)F)c1)c1ccccn1 [Example 29, N-{4-[5-(2-chlorophenyl)-1,2,4-oxadiazol-3-yl]-3-(trifluoromethyl)phenyl} pyridine-2-carboxamide]	99.2 to 119
COc1cc(NC(=O)c2cccc(F)n2)ccc1-c1noc(-c2ccccc2F)n1 [Example 40, 6-fluoro-N-{4-[5-(2-fluorophenyl)-1,2,4-oxadiazol-3-yl]-3-methoxyphenyl} pyridine-2-carboxamide]	105 to 135
Cn1cccc1C(=O)Nc1ccc(-c2nc(-c3ccccc3)no2)cc1 [Example 54, 1-methyl-N-[4-(3-phenyl-1,2,4-oxadiazol-5-yl)phenyl]-1H-pyrrole-2-carboxamide]	99.2 to 119
COc1cc(NC(=O)c2nc(Cl)ccc2Cl)ccc1-c1noc(-c2ccccc2F)n1 [Example 41, 3,6-dichloro-N-{4-[5-(2-fluorophenyl)-1,2,4-oxadiazol-3-yl]-3-methoxyphenyl}pyridine-2-carboxamide]	99.2 to 119
COc1cc(NC(=O)c2ccncn2)ccc1-c1noc(-c2ccccc2Cl)n1 [Example 38, N-{4-[5-(2-chlorophenyl)-1,2,4-oxadiazol-3-yl]-3-methoxyphenyl} pyrimidine-4-carboxamide]	105 to 135
O=C(Nc1ccc(-c2noc(-c3ccc(F)cc3Cl)n2)c(Cl)c1)c1ccccn1 [Example 22, N-{3-chloro-4-[5-(2-chloro-4-fluorophenyl)-1,2,4-oxadiazol-3-yl]phenyl}pyridine-2-carboxamide]	99.2 to 119
O=C(Nc1ccc(-c2noc(-c3ccc(F)cc3Cl)n2)c(F)c1)c1ccccn1 [Example 26, N-{4-[5-(2-chloro-4-fluorophenyl)-1,2,4-oxadiazol-3-yl]-3-fluorophenyl} pyridine-2-carboxamide]	105 to 135
COc1ccc(-c2nc(-c3ccc(NC(=O)c4ccncc4)cc3)no2)cc1 [Example 6, N-{4-[5-(4-methoxyphenyl)-1,2,4-oxadiazol-3-yl]phenyl}pyridine-4-carboxamide]	105 to 135
COc1ccccc1-c1nc(-c2ccc(NC(=O)c3ccccn3)cc2F)no1 [Example 27, N-{4-[5-(2-methoxyphenyl)-1,2,4-oxadiazol-3-yl]-3-fluorophenyl}pyridine-2-carboxamide]	105 to 118
COc1cc(NC(=O)c2ncc(Cl)cc2F)ccc1-c1noc(-c2ccccc2Cl)n1 [Example 33, 5-chloro-N-{4-[5-(2-chlorophenyl)-1,2,4-oxadiazol-3-yl]-3-methoxyphenyl}-3-fluoropyridine-2-carboxamide]	99.2 to 119
O=C(Nc1ccc(-c2noc(-c3ccccc3Cl)n2)c(Cl)c1)c1cccc(F)n1 [Example 42]	99.2 to 119
COc1cc(NC(=O)c2cccc(F)n2)ccc1-c1noc(-c2ccccc2Cl)n1 [Example 32, N-{4-[5-(2-chlorophenyl)-1,2,4-oxadiazol-3-yl]-3-methoxyphenyl}-6-fluoropyridine-2-carboxamide]	99.2 to 119
O=S(=O)(Nc1ccccc1Cl)c1ccc(-c2noc(-c3ccccc3)n2)cc1 [Example 44, N-(2-chlorophenyl)-4-(5-phenyl-1,2,4-oxadiazol-3-yl)benzene-1-sulfonamide]	99.2 to 119
Cc1cc(NC(=O)c2ccccn2)ccc1-c1noc(-c2ccccc2Cl)n1 [Example 31, N-{4-[5-(2-chlorophenyl)-1,2,4-oxadiazol-3-yl]-3-methylphenyl}pyridine-2-carboxamide]	105 to 135
